The test system of test [1] is STAT3 phosphorylation in NCI-H1975 cells. As to the kind of experiment: Cellular pSTAT3 assay in NCI-H1975 cells. It is filed as cell-based. Conditions: Homo sapiens, 2 hours with compound. Here is the method:
NCI-H1975 cells were plated onto Costar #3701 96 or 384 well tissue-culture treated plates at 5,000 cells/well in 30 uL medium (RPMI, 10% FBS, supplemented with L-glutamine) and incubated overnight at 37° C. in 5% CO2. Phospho STAT3 signal was quantitated utilizing Cell Signaling Technology #7146B Pathscan […] STAT3 antibody pair kit, following manufacturer's instructions.
Cells were dosed with compound and incubated at 37° C. in 5% CO2 for 2 hours, after which medium and compound were aspirated and cells lysed with 35 uL cold 1×Cell Signaling Lysis buffer and chilled at 4° C. for 1-2 hours. Lysate was incubated on STAT3 capture plates at 4° C. overnight, washed 3× with Tris-Buffered Saline with 0.05% Tween® 20 (TBST), then […] STAT3 detection antibody was applied for 2 hours. Following washing with TBST (3×), HRP-secondary antibody was applied for 2 hours. After additional washing, signal was detected using TMB and Stop solution and read at 450 nm using Tecan Infinite M100.

Another test has as its target JAK1 (Homo sapiens (Human), UniProt P23458). The test can be described thus: Enzyme inhibition studies, recombinant JAK1 (Caliper peptide phosphorylation). Conditions: recombinant JAK1 (amino acids 866-1154); assayed at ATP Km (55 μM) and 5 mM ATP, table does not say which. It is filed as biochemical. On the procedure: (§1) Enzyme inhibition studies were performed using recombinant JAK1 (amino acids 866-1154, Life Technologies, #PV4774, Carlsbad, Calif.), JAK2 (amino acids 831-1132), or JAK3 (amino acids 781-1124) under buffer conditions of 50 mM HEPES pH 7.3, 1 mM DTT, 0.01% Tween® 20, 50 μg/mL BSA, and 10 mM MgCl2. JAK enzyme was expressed as an N-terminal GST fusion in insect cells and purified by glutathione-affinity and size-exclusion chromatographies. […] Phosphorylated and unphosphorylated peptides were separated and quantified by a Caliper LC3000 system (Caliper Life Sciences, MA) for calculating percent inhibition.

The next test concerns the target JAK3 (Homo sapiens (Human), UniProt P52333). The test can be described thus: Enzyme inhibition studies, recombinant JAK3 (Caliper peptide phosphorylation). It counts as biochemical. As to conditions: recombinant JAK3 (amino acids 781-1124); assayed at ATP Km (3 μM) and 5 mM ATP, table does not say which. On the procedure: as §1
In a further test the target is JAK2 (Homo sapiens (Human), UniProt O60674). As to the kind of experiment: Enzyme inhibition studies, recombinant JAK2 (Caliper peptide phosphorylation). It counts as biochemical. Conditions: recombinant JAK2 (amino acids 831-1132); assayed at ATP Km (15 μM) and 5 mM ATP, table does not say which. On the procedure: as §1
JAK2, sequence (O60674 831-1132): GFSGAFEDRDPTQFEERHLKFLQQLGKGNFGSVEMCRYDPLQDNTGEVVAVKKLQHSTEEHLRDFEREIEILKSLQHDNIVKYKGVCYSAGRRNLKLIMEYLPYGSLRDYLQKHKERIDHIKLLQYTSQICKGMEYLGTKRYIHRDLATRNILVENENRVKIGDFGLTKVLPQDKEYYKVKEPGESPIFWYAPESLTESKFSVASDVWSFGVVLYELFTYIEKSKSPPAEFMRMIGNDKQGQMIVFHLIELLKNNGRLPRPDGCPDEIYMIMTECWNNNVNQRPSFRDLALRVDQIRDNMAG

JAK3, sequence (P52333 781-1124): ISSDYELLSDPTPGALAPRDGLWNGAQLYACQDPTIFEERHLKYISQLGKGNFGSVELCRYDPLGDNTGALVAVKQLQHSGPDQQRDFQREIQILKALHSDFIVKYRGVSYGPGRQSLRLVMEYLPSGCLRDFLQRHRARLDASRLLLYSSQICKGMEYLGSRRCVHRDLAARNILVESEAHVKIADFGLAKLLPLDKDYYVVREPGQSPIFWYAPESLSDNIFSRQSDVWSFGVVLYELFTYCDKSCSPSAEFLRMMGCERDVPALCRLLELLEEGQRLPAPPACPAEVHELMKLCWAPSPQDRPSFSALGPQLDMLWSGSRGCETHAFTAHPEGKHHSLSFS
JAK1, sequence (P23458 866-1154): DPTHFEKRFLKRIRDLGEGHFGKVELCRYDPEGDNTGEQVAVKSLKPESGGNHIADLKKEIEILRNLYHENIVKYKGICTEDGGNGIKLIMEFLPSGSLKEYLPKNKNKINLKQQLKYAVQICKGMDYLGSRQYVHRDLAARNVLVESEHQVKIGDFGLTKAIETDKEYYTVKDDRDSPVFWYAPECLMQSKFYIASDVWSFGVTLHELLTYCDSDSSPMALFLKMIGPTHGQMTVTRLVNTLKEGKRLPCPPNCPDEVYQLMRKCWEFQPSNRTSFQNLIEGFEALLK

The IC50 is the concentration at which inhibition is half-maximal. On to `CCOc1nn(C)cc1Nc1ncc(C)c(-c2c[nH]c3c(NC(=O)[C@@H](COC)N4CCN(C)CC4)cccc23)n1` [Example 64, (2R)-N-(3-{2-[(3-ethoxy-1-methyl-1H-pyrazol-4-yl)amino]-5-methylpyrimidin-4-yl}-1H-indol-7-yl)-3-methoxy-2-(4-methylpiperazin-1-yl)propanamide], for which the IC50 in test [1] is 0.112 µM; on JAK1 it was less than 0.005 µM; on JAK3, greater than 30 µM; at JAK2 it was 2.04 µM.
For `CCOc1nn(C)cc1Nc1ncc(C)c(-c2c[nH]c3c(NC(=O)[C@H](COC)N4CCN(C)CC4)cccc23)n1` [Example 65, (2S)-N-(3-{2-[(3-ethoxy-1-methyl-1H-pyrazol-4-yl)amino]-5-methylpyrimidin-4-yl}-1H-indol-7-yl)-3-methoxy-2-(4-methylpiperazin-1-yl)propanamide] the same measures were 1.03 µM, 2.53 µM, greater than 30 µM and greater than 30 µM.
As to `CCOc1nn(C)cc1Nc1ncc(C)c(-c2c[nH]c3c(NC(=O)[C@H](C)N4CCN(C)[C@@H](C)C4)cccc23)n1` [Example 31b, (2S)-2-[(3S)-3,4-dimethylpiperazin-1-yl]-N-(3-{2-[(3-ethoxy-1-methyl-1H-pyrazol-4-yl)amino]-5-methylpyrimidin-4-yl}-1H-indol-7-yl)propanamide], the IC50 in test [1] turned out to be 0.33 µM.
With `COc1nn(C)cc1Nc1ncc(C)c(-c2c[nH]c3c(NC(=O)[C@@H](C)N4CCN(C)C[C@H]4C)cccc23)n1` [Example 38, (2R)-2-[(2R)-2,4-dimethylpiperazin-1-yl]-N-(3-{2-[(3-methoxy-1-methyl-1H-pyrazol-4-yl)amino]-5-methylpyrimidin-4-yl}-1H-indol-7-yl)propanamide], the IC50 in test [1] was determined as 0.108 µM.
As for `COc1nn(C)cc1Nc1ncc(C)c(-c2c[nH]c3c(NC(=O)[C@H](C)N4CCN(C)CC4)cccc23)n1` [Example 33, (2S)-N-{3-[2-[(3-methoxy-1-methyl-1H-pyrazol-4-yl)amino]-5-methylpyrimidin-4-yl}-1H-indol-7-yl)-2-(4-methylpiperaizn-1-yl)propanamide], the IC50 in test [1] is 0.308 µM.
Take `CCOc1nn(C)cc1Nc1ncc(C)c(-c2c[nH]c3c(NC(=O)[C@@H](C)N4CCN(C)[C@@H](C)C4)cccc23)n1` [Example 31a, (2R)-2-[(3S)-3,4-dimethylpiperazin-1-yl]-N-(3-{2-[(3-ethoxy-1-methyl-1H-pyrazol-4-yl)amino]-5-methylpyrimidin-4-yl}-1H-indol-7-yl)propanamide]: the IC50 in test [1] worked out at 0.153 µM.
On to `COc1nn(C)cc1Nc1ncc(F)c(-c2c[nH]c3c(NC(=O)[C@@H](C)N4CCN(C)C[C@H]4C)cccc23)n1` [Example 6, (2R)-2-[(2R)-2,4-dimethylpiperazin-1-yl]-N-(3-{5-fluoro-2-[(3-methoxy-1-methyl-1H-pyrazol-4-yl)amino]pyrimidin-4-yl}-1H-indol-7-yl)propanamide], for which the IC50 in test [1] was determined as 0.111 µM.
On to `COc1nn(C)cc1Nc1nccc(-c2c[nH]c3c(NC(=O)[C@@H](C)N4CCN(C)C[C@H]4C)cccc23)n1` [Example 29, (2R)-2-[(2R)-2,4-dimethylpiperazin-1-yl]-N-(3-{2-[(3-methoxy-1-methyl-1H-pyrazol-4-yl)amino]pyrimidin-4-yl}-1H-indol-7-yl)propanamide], for which, in test [1], the IC50 was determined as 0.227 µM.
As for `CCOc1nn(CC)cc1Nc1ncc(C)c(-c2c[nH]c3c(NC(=O)[C@@H](C)N4CCN(C)CC4)cccc23)n1` [Example 59, (2R)-N-(3-{2-[(3-ethoxy-1-ethyl-1H-pyrazol-4-yl)amino]-5-methylpyrimidin-4-yl}-1H-indol-7-yl)-2-(4-methylpiperazin-1-yl)propanamide], the IC50 in test [1] stood at 0.245 µM.
Still for that read-out and setting: in the case of `CC[C@H](C(=O)Nc1cccc2c(-c3nc(Nc4cn(C)nc4OC)ncc3C)c[nH]c12)N1CCN(C)CC1` [Example 44, (2R)-N-(3-{2-[(3-Methoxy-1-methyl-1H-pyrazol-4-yl)amino]-5-methylpyrimidin-4-yl}-1H-indol-7-yl)-2-(4-methylpiperazin-1-yl)butanamide] it was 0.0577 µM; in that of `COC[C@H](C(=O)Nc1cccc2c(-c3nc(Nc4cn(C)nc4OC)ncc3C)c[nH]c12)N1CCN(C)CC1` [Example 45, (2R)-3-methoxy-N-(3-{2-[(3-methoxy-1-methyl-1H-pyrazol-4-yl)amino]-5-methylpyrimidin-4-yl}-1H-indol-7-yl)-2-(4-methylpiperazin-1-yl)propanamide], 0.0603 µM.
On the same count and under the same terms, then `Cc1cnc(Nc2cn(C)nc2C)nc1-c1c[nH]c2c(NC(=O)[C@H](C)N3CCN(C)CC3)cccc12` [Example 42, (2S)-N-(3-{2-[(1,3-dimethyl-1H-pyrazol-4-yl)amino]-5-methylpyrimidin-4-yl}-1H-indol-7-yl)-2-(4-methylpiperazin-1-yl)propanamide], with 0.172 µM; and `COc1nn(C)cc1Nc1ncc(F)c(-c2c[nH]c3c(NC(=O)[C@@H](C)N4CCN(C)C[C@@H]4C)cccc23)n1` [Example 7a, (2R)-2-[(3S)-2,4-dimethylpiperazin-1-yl]-N-(3-{5-fluoro-2-[(3-methoxy-1-methyl-1H-pyrazol-4-yl)amino]pyrimidin-4-yl}-1H-indol-7-yl)propanamide], with 0.509 µM; and `COc1nn(C)cc1Nc1ncc(Cl)c(-c2c[nH]c3c(NC(=O)[C@@H](C)N4CCN(C)CC4)cccc23)n1` [Example 36, (2R)-N-(3-{5-chloro-2-[(3-methoxy-1-methyl-1H-pyrazol-4-yl)amino]pyrimidin-4-yl}-1H-indol-7-yl)-2-(4-methylpiperazin-1-yl)propanamide], with 0.0579 µM.
Take `CC[C@@H](C(=O)Nc1cccc2c(-c3nc(Nc4cn(C)nc4OC)ncc3F)c[nH]c12)N1CCN(C)CC1` [Example 52, (2S)-N-(3-{5-fluoro-2-[(3-methoxy-1-methyl-1H-pyrazol-4-yl)amino]pyrimidin-4-yl}-1H-indol-7-yl)-2-(4-methylpiperaizn-1-yl)butanamide]: the concentration for half-maximal inhibition (IC50) in test [1] is 0.548 µM.
Consider `CC[C@H](C(=O)Nc1cccc2c(-c3ccnc(Nc4cn(C)nc4OC)n3)c[nH]c12)N1CCN(C)CC1` [Example 47, (2R)-N-(3-{2-[(3-Methoxy-1-methyl-1H-pyrazol-4-yl)amino]pyrimidin-4-yl}-1H-indol-7-yl)-2-(4-methylpiperazin-1-yl)butanamide], for which, in test [1], the IC50 was 0.136 µM.
Still for that read-out and setting: in the case of `CCOc1nn(C)cc1Nc1ncc(C)c(-c2c[nH]c3c(NC(=O)[C@@H](C)N4CCN(CCOC)CC4)cccc23)n1` [Example 21, (2R)-N-(3-{2-[(3-ethoxy-1-methyl-1H-pyrazol-4-yl)amino]-5-methylpyrimidin-4-yl}-1H-indol-7-yl)-2-[4-(2-methoxyethyl)piperazin-1-yl]propanamide] it was 0.703 µM.
On the same count and under the same terms, in the case of `CCOc1nn(C)cc1Nc1ncc(C)c(-c2c[nH]c3c(NC(=O)[C@@H](C)N4CCN(C)[C@H](C)C4)cccc23)n1` [Example 24, (2R)-2-[(3R)-3,4-dimethylpiperazin-1-yl]-N-(3-{2-[(3-ethoxy-1-methyl-1H-pyrazol-4-yl)amino]-5-methylpyrimidin-4-yl}-1H-indol-7-yl)propanamide] it was 0.37 µM.
The same measure, in the same setting: in the case of `CCN1CCN([C@H](C)C(=O)Nc2cccc3c(-c4ccnc(Nc5cn(C)nc5OC)n4)c[nH]c23)CC1` [Example 28, (2R)-2-(4-ethylpiperazin-1-yl)-N-(3-{2-[(3-methoxy-1-methyl-1H-pyrazol-4-yl)amino]pyrimidin-4-yl}-1H-indol-7-yl)propanamide] it was 0.1 µM; in that of `CCOc1nn(C)cc1Nc1ncc(F)c(-c2c[nH]c3c(NC(=O)[C@@H](C)N4CCN(C)C[C@@H]4C)cccc23)n1` [Example 10a, (2R)-2-[(2S)-2,4-dimethylpiperazin-1-yl]-N-(3-{2-[(3-ethoxy-1-methyl-1H-pyrazol-4-yl)amino]-5-fluoropyrimidin-4-yl}-1H-indol-7-yl)propanamide], 0.531 µM.
In the case of `CCOc1nn(C)cc1Nc1ncc(F)c(-c2c[nH]c3c(NC(=O)[C@@H](C)N4CCN(C)[C@H](C)C4)cccc23)n1` [Example 13, (2R)-2-[(3R)-3,4-dimethylpiperazin-1-yl]-N-(3-{2-[(3-ethoxy-1-methyl-1H-pyrazol-4-yl)amino]-5-fluoropyrimidin-4-yl}-1H-indol-7-yl)propanamide], the IC50 in test [1] was 0.222 µM.
The same measure, in the same setting: in the case of `COc1nn(C)cc1Nc1ncc(F)c(-c2c[nH]c3c(NC(=O)[C@H](C)N4CCN(C)C[C@@H]4C)cccc23)n1` [Example 7b, (2S)-2-[(3S)-2,4-dimethylpiperazin-1-yl]-N-(3-{5-fluoro-2-[(3-methoxy-1-methyl-1H-pyrazol-4-yl)amino]pyrimidin-4-yl}-1H-indol-7-yl)propanamide] it was greater than 3 µM.

Values taken from patent US10167276B2, “Compounds and methods for inhibiting JAK” (Dizal (Jiangsu) Pharmaceutical Co., Ltd., priority 2015, dated 2019).
